Experimental data as given in patent publication US10722501B2 (BAYER AKTIENGESELLSCHAFT, priority 2016, dated 2020).

These compounds were tested against T1, recombinant full-length human prolyl endopeptidase (PREP) (Homo sapiens, UniProt P48147) (assay: Biochemical human prolyl endopeptidase (PREP) assay with fluorescently labelled substrate). Conditions: substrate Z-Gly-Pro-AMC 50 μM, 32° C., 60 min; some as mean values from multiple independent determinations.
T1 construct: To recombinant full-length human prolyl endopeptidase (PREP, R&D-Systems, 4308-SE); purchased R&D-Systems 4308-SE
T1 sequence (P48147 1-710): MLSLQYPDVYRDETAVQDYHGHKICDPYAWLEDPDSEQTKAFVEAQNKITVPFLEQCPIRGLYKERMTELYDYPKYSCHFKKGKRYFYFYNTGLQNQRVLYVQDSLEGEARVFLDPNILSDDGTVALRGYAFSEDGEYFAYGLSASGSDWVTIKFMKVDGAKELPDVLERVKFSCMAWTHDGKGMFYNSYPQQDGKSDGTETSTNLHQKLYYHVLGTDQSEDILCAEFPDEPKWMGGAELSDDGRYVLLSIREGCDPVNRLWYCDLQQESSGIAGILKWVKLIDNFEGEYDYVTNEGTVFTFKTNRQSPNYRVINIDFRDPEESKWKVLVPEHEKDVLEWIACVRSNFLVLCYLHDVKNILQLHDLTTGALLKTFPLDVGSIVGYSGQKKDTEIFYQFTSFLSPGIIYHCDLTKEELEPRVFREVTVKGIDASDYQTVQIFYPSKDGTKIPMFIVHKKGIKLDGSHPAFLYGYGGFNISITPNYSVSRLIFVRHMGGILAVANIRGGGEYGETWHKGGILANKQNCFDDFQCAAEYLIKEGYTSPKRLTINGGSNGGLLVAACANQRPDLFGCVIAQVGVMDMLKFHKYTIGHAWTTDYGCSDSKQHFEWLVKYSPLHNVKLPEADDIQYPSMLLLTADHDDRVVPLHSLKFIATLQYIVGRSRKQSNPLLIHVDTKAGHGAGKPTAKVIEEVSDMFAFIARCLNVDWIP
Procedure, shortened: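 Initial rates of fluorescence increase from 50 μM Z-Gly-Pro-AMC cleavage (ex 360/em 465 nm, 60 min, 32° C) give percent PREP activity versus no-compound control, and IC50 is interpolated. Enzyme used at 0.4 nM (final, example) in Tris pH 7.5 with EDTA, GSH, BSA and Brij-35; compounds span 1 nM to 30 μM.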

In order of rising IC50:
1. Cc1ccc(Cn2nc3n(c2=O)[C@H](C(=O)N2CCC4CC42)CCC3)cc1 (single isomer, unassigned) [Example 188]  0.091 nM
2. O=C([C@@H]1CCCc2nn(Cc3cccc(C(F)(F)F)c3)c(=O)n21)N1CC[C@H](F)C1 [Example 444, (5S)-5-{[(3S)-3-Fluoropyrrolidin-1-yl]carbonyl}-2-[3-(trifluoromethyl)benzyl]-5,6,7,8-tetrahydro[1,2,4]triazolo[4,3-a]pyridin-3(2H)-one]  0.19 nM
3. O=C([C@@H]1CCCc2nn(Cc3cc(F)c(F)cc3F)c(=O)n21)N1CCC(F)(F)C1 [Example 490, (5S)-5-[(3,3-Difluoropyrrolidin-1-yl)carbonyl]-2-(2,4,5-trifluorobenzyl)-5,6,7,8-tetrahydro[1,2,4]triazolo[4,3-a]pyridin-3(2H)-one]  0.38 nM
4. O=C([C@@H]1CCC(O)c2nn(Cc3ncc(F)cc3F)c(=O)n21)N1CC[C@H](F)C1 (mixture of isomers) [Example 585, (5S,8SR)-2-[(3,5-Difluoropyridin-2-yl)methyl]-5-{[(3S)-3-fluoropyrrolidin-1-yl]carbonyl}-8-hydroxy-5,6,7,8-tetrahydro[1,2,4]triazolo[4,3-a]pyridin-3(2H)-one]  0.43 nM
5. O=C([C@@H]1CCCc2nn(Cc3cc(C(F)(F)F)nc4ccc(F)cc34)c(=O)n21)N1CCCC1 [Example 498, (5S)-2-{[6-Fluoro-2-(trifluoromethyl)quinolin-4-yl]methyl}-5-(pyrrolidin-1-ylcarbonyl)-5,6,7,8-tetrahydro[1,2,4]triazolo[4,3-a]pyridin-3(2H)-one]  0.44 nM
6. O=C([C@@H]1CCCc2nn(Cc3ccc(C(F)(F)F)c(F)c3)c(=O)n21)N1CCC(F)(F)C1 [Example 470, (5S)-5-[(3,3-Difluoropyrrolidin-1-yl)carbonyl]-2-[3-fluoro-4-(trifluoromethyl)benzyl]-5,6,7,8-tetrahydro[1,2,4]triazolo[4,3-a]pyridin-3(2H)-one]  0.82 nM
7. O=C(C1CCC(C(F)(F)F)c2nn(Cc3ccc(C(F)(F)F)nc3)c(=O)n21)N1CC[C@H](F)C1 (mixture of isomers) [Example 271, (5RS,8RS)-5-{[(3S)-3-Fluoropyrrolidin-1-yl]carbonyl}-8-(trifluoromethyl)-2-{[6-(trifluoromethyl)pyridin-3-yl]methyl}-5,6,7,8-tetrahydro[1,2,4]triazolo[4,3-a]pyridin-3(2H)-one]  1.1 nM
8. O=C([C@@H]1CCCc2nn(Cc3ccc(F)cc3)c(=O)n21)N1C[C@@H](F)[C@@H](F)C1 [Example 452, (5S)-5-{[(3R,4S)-3,4-Difluoropyrrolidin-1-yl]carbonyl}-2-(4-fluorobenzyl)-5,6,7,8-tetrahydro[1,2,4]triazolo[4,3-a]pyridin-3(2H)-one]  1.3 nM
9. COc1ccc(CCn2nc3n(c2=O)[C@H](C(=O)N2C[C@@H](F)[C@@H](F)C2)CCC3)cc1 [Example 522, (5S)-5-{[(3R,4S)-3,4-Difluoropyrrolidin-1-yl]carbonyl}-2-[2-(4-methoxyphenyl)ethyl]-5,6,7,8-tetrahydro[1,2,4]triazolo[4,3-a]pyridin-3(2H)-one]  1.5 nM
10. Cc1cc(Cn2nc3n(c2=O)C(C(=O)N2CCCC2)CCC3)on1 (racemic) [Example 13, (5RS)-2-[(3-Methyl-1,2-oxazol-5-yl)methyl]-5-(pyrrolidin-1-ylcarbonyl)-5,6,7,8-tetrahydro[1,2,4]triazolo[4,3-a]pyridin-3(2H)-one]  5.4 nM
11. O=C([C@@H]1CCCc2nn(Cc3ccc(C(F)F)nc3)c(=O)n21)N1CC(F)C1 [Example 209, (5S)-2-{[6-(Difluoromethyl)pyridin-3-yl]methyl}-5-[(3-fluoroazetidin-1-yl)carbonyl]-5,6,7,8-tetrahydro[1,2,4]triazolo[4,3-a]pyridin-3(2H)-one]  5.5 nM
12. O=C(C1CCCc2nn(Cc3ccc(C(F)(F)F)nc3)c(=O)n21)N1CC(F)C1 (racemic) [Example 96, (5RS)-5-[(3-Fluoroazetidin-1-yl)carbonyl]-2-{[6-(trifluoromethyl)pyridin-3-yl]methyl}-5,6,7,8-tetrahydro[1,2,4]triazolo[4,3-a]pyridin-3(2H)-one]  7.4 nM
13. O=C(C1CC(C(F)(F)F)Cc2nn(Cc3ncc(F)cc3Cl)c(=O)n21)N1CCC(F)(F)C1 (racemic) [Example 575, (5RS,7RS)-2-[(3-Chloro-5-fluoropyridin-2-yl)methyl]-5-[(3,3-difluoropyrrolidin-1-yl)carbonyl]-7-(trifluoromethyl)-5,6,7,8-tetrahydro[1,2,4]triazolo[4,3-a]pyridin-3(2H)-one]  7.4 nM
14. O=C(C1CCCc2nn(Cc3ccc(Cl)cn3)c(=O)n21)N1CCCC1 (racemic) [Example 33, (5RS)-2-[(5-Chloropyridin-2-yl)methyl]-5-(pyrrolidin-1-ylcarbonyl)-5,6,7,8-tetrahydro[1,2,4]triazolo[4,3-a]pyridin-3(2H)-one]  7.7 nM
15. Cc1ccc(Cn2nc3n(c2=O)[C@H](C(=O)N2CC(F)(F)C(F)(F)C2)CCC3)cc1 [Example 145, (5S)-2-(4-Methylbenzyl)-5-[(3,3,4,4-tetrafluoropyrrolidin-1-yl)carbonyl]-5,6,7,8-tetrahydro[1,2,4]triazolo[4,3-a]pyridin-3(2H)-one]  12.7 nM
16. CC(C)(C)c1ccc(Cn2nc3n(c2=O)C(C(=O)N2CCCC2)CCC3)cc1 (racemic) [Example 2, (5RS)-2-(4-tert-Butylbenzyl)-5-(pyrrolidin-1-ylcarbonyl)-5,6,7,8-tetrahydro[1,2,4]triazolo[4,3-a]pyridin-3(2H)-one]  15.4 nM
17. Cc1ccc(Cn2nc3n(c2=O)[C@H](C(=O)N2C[C@H](F)[C@@H](F)C2)CCC3)cc1 [Example 140, (5S)-5-{[(3S,4S)-3,4-Difluoropyrrolidin-1-yl]carbonyl}-2-(4-methylbenzyl)-5,6,7,8-tetrahydro[1,2,4]triazolo[4,3-a]pyridin-3(2H)-one]  16 nM
18. O=C([C@@H]1CCC(F)(F)c2nn(Cc3ncc(F)cc3F)c(=O)n21)N1CCC(F)(F)C1 [Example 588, (5S)-2-[(3,5-Difluoropyridin-2-yl)methyl]-5-[(3,3-difluoropyrrolidin-1-yl)carbonyl]-8,8-difluoro-5,6,7,8-tetrahydro[1,2,4]triazolo[4,3-a]pyridin-3(2H)-one]  18 nM
19. O=C(C1CC(C(F)(F)F)Cc2nn(Cc3cncc(Cl)c3)c(=O)n21)N1C[C@@H](F)[C@@H](F)C1 (single isomer, unassigned) [Example 268]  23 nM
20. O=C([C@@H]1CCCc2nn(Cc3ccc(C(F)(F)F)nc3)c(=O)n21)N1CC[C@H](O)C1 [Example 425, (5S)-5-{[(3S)-3-Hydroxypyrrolidin-1-yl]carbonyl}-2-{[6-(trifluoromethyl)pyridin-3-yl]methyl}-5,6,7,8-tetrahydro[1,2,4]triazolo[4,3-a]pyridin-3(2H)-one]  35 nM
21. Cc1ccc(Cn2nc3n(c2=O)[C@H](C(=O)N2CCC(O)(C(F)(F)F)C2)CCC3)cc1 (mixture of isomers) [Example 152, (5S)-5-{[(3RS)-3-Hydroxy-3-(trifluoromethyl)pyrrolidin-1-yl]carbonyl}-2-(4-methylbenzyl)-5,6,7,8-tetrahydro[1,2,4]triazolo[4,3-a]pyridin-3(2H)-one]  38 nM
22. O=C([C@@H]1CCCc2nn(Cc3nnc(C(F)(F)F)o3)c(=O)n21)N1CCC(F)(F)C1 [Example 541, (5S)-5-[(3,3-Difluoropyrrolidin-1-yl)carbonyl]-2-{[5-(trifluoromethyl)-1,3,4-oxadiazol-2-yl]methyl}-5,6,7,8-tetrahydro[1,2,4]triazolo[4,3-a]pyridin-3(2H)-one]  63 nM
23. Cc1ccc(Cn2nc3n(c2=O)C(C(=O)N2CC(O)(C(F)(F)F)C2)CCC3)cc1 (racemic) [Example 131, (5RS)-{[3-Hydroxy-3-(trifluoromethyl)azetidin-1-yl]carbonyl}-2-(4-methylbenzyl)-5,6,7,8-tetrahydro[1,2,4]triazolo[4,3-a]pyridin-3(2H)-one]  107 nM
24. O=C(C1CC(C(F)(F)F)Cc2nn(Cc3ccnc(C(F)(F)F)c3F)c(=O)n21)N1CC(F)C1 (single isomer, unassigned) [Example 253, (5RS,7RS)-5-[(3-Fluoroazetidin-1-yl)carbonyl]-2-{[3-fluoro-2-(trifluoromethyl)pyridin-4-yl]methyl}-7-(trifluoromethyl)-5,6,7,8-tetrahydro[1,2,4]triazolo[4,3-a]pyridin-3(2H)-one]  120 nM
25. Cc1ccc(Cn2nc3n(c2=O)[C@H](C(=O)N2CCC[C@H]2C)CCC3)cc1 [Example 132, (5S)-2-(4-Methylbenzyl)-{[(2R)-2-methylpyrrolidin-1-yl]carbonyl}-5,6,7,8-tetrahydro[1,2,4]triazolo[4,3-a]pyridin-3(2H)-one]  141 nM
